Data taken from ChEMBL document CHEMBL1143066, “Characterization and optimization of selective, nonpeptidic inhibitors of cathepsin S with an unprecedented binding mode” (J Med Chem, 2007).

What was measured:
[1] = species: Homo sapiens; experiment: Selectivity for cathepsin S over cathepsin L
[2] = species: Homo sapiens; experiment: Selectivity for cathepsin S over cathepsin B
[3] = species: Homo sapiens; experiment: Selectivity for cathepsin S over cathepsin K

- Activity [1]: > 1000
- Activity [2]: > 1000
- Activity [3]: > 100
SMILES: CC(C)Cc1ccc(-c2ccccc2OCC=O)c(F)c1F
